Assay results as given in patent US20230085307A1, “PYRIDAZINONE COMPOUND AND HERBICIDE” (NISSAN CHEMICAL CORPORATION, priority 2019, published 2023).

How the values were obtained:
late watergrass = assay: Test Example 1: herbicidal activity, application before weed generation under submerged conditions (Table 16, symbol A); assay type: in vivo, late watergrass (Echinochloa oryzicola); conditions: 320 g/ha applied herbicide
Procedure, shortened: (§1)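 Alluvial soil was flooded to 4 cm depth, weed seeds were sown mixed and 2.5-leaf rice seedlings were transplanted. On sowing day, the compound's emulsion, diluted in water to a set dose, was applied to the water surface. Plants grew at 25–30 °C and were scored 0–5 after three weeks.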

oval-leafed pondweed = assay: Test Example 1: herbicidal activity, application before weed generation under submerged conditions (Table 16, symbol C); assay type: in vivo, oval-leafed pondweed (Monochoria vaginalis); conditions: 320 g/ha applied herbicide
Procedure, shortened: as §1

Japanese bulrush = assay: Test Example 2: herbicidal activity, application during weed generation under submerged conditions (Table 17, symbol B); assay type: in vivo, Japanese bulrush (Schoenoplectus juncoides); conditions: AAH 320 g/ha; application during weed generation, submerged conditions
Procedure, shortened: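 Alluvial soil in Wagner pots was flooded to 4 cm depth and sown with the three weeds together; pots were kept in a greenhouse at 25° C. to 30° C. At the one to two leaf stage, an emulsion formulation diluted in water to a set rate went onto the water surface; scored three weeks later.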

barnyard grass [1] = assay: Test Example 3: herbicidal effect by foliage application, Wagner pot (Table 18, symbol H); assay type: in vivo, barnyard grass (Echinochloa crus-galli); conditions: 320 g/ha
Procedure, shortened: (§2)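 Plants were sown in alluvial soil held under 0.1–0.5 cm standing water and grown 14 days in a greenhouse at 25–30 °C. An emulsifiable formulation, water-diluted to the set dose, was then sprayed onto the foliage, and effects were scored three weeks later using previously defined criteria.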

rice flat sedge = assay: Test Example 3: herbicidal effect by foliage application, Wagner pot (Table 18, symbol E); assay type: in vivo, rice flat sedge (Cyperus iria); conditions: 320 g/ha
Procedure, shortened: as §2

green foxtail [2] = assay: Test Example 4: herbicidal effect by soil treatment (Table 19, symbol G); assay type: in vivo, green foxtail (Setaria viridis)
Procedure, shortened: (§3)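 Scoring uses the grading scale of an earlier test, three weeks post-application. Treatment consists of spraying a diluted emulsion formulation across the surface of sterilized diluvial soil in which seeds are buried near 1.5 cm deep; boxes are kept in a greenhouse between 25° C. and 30° C.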

barnyard grass [3] = assay: Test Example 4: herbicidal effect by soil treatment (Table 19, symbol H); assay type: in vivo, barnyard grass (Echinochloa crus-galli)
Procedure, shortened: as §3

velvetleaf = assay: Test Example 4: herbicidal effect by soil treatment (Table 19, symbol M); assay type: in vivo, velvetleaf (Abutilon theophrasti)
Procedure, shortened: as §3

redroot pigweed [4] = assay: Test Example 4: herbicidal effect by soil treatment (Table 19, symbol N); assay type: in vivo, redroot pigweed (Amaranthus retroflexus)
Procedure, shortened: as §3

chickweed [5] = assay: Test Example 4: herbicidal effect by soil treatment (Table 19, symbol P); assay type: in vivo, common chickweed (Stellaria media)
Procedure, shortened: as §3

southern crabgrass = assay: Test Example 5: herbicidal effect by foliage application, plastic box (Table 20, symbol F); assay type: in vivo, southern crabgrass (Digitaria ciliaris); conditions: foliage application, 320 g/ha
Procedure, shortened: (§4)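 Post-emergence foliar test in sterilized diluvial soil. Compound applied as water-diluted emulsion at a predetermined rate to 14-day-old plants; evaluation at three weeks.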

green foxtail [6] = assay: Test Example 5: herbicidal effect by foliage application, plastic box (Table 20, symbol G); assay type: in vivo, green foxtail (Setaria viridis); conditions: foliage application, 320 g/ha
Procedure, shortened: as §4

blackgrass = assay: Test Example 5: herbicidal effect by foliage application, plastic box (Table 20, symbol J); assay type: in vivo, blackgrass (Alopecurus myosuroides); conditions: foliage application, 320 g/ha
Procedure, shortened: as §4

Italian ryegrass = assay: Test Example 5: herbicidal effect by foliage application, plastic box (Table 20, symbol K); assay type: in vivo, Italian ryegrass (Lolium multiflorum); conditions: foliage application, 320 g/ha
Procedure, shortened: as §4

redroot pigweed [7] = assay: Test Example 5: herbicidal effect by foliage application, plastic box (Table 20, symbol N); assay type: in vivo, redroot pigweed (Amaranthus retroflexus); conditions: foliage application, 320 g/ha
Procedure, shortened: as §4

chickweed [8] = assay: Test Example 5: herbicidal effect by foliage application, plastic box (Table 20, symbol P); assay type: in vivo, common chickweed (Stellaria media); conditions: foliage application, 320 g/ha
Procedure, shortened: as §4

[9] = amount of applied herbicide 320 g/ha
[10] = evaluated three weeks after application

For `Cc1nn(C)c(=O)c(-c2c(-c3ccc4c(c3)OCO4)sc3ccccc23)c1O` [1-087], the “Herbicidal effect on A: late watergrass (grade 0-5)” value (late watergrass) was 3 (Herbicidal rate of 40% or more and less than 70%), the “Herbicidal effect on C: oval-leafed pondweed (grade 0-5)” value (oval-leafed pondweed) was 0 (Herbicidal rate of 5% or less (almost no effect)) and the “herbicidal effect rating, B: Japanese bulrush” value (Japanese bulrush) was 1 (Herbicidal rate of 5% or more and less than 20%). For the same compound, the “herbicidal effect on H (barnyard grass), rating 0-5” value (barnyard grass [1]) was 4 (Herbicidal rate of 70% or more and less than 90%), the “herbicidal effect on E (rice flat sedge), rating 0-5” value (rice flat sedge) was 5 (Herbicidal rate of 90% or more (almost completely withered)) and the “herbicidal effect rating, G: green foxtail” value (green foxtail [2]; [9]) was 5 (Herbicidal rate of 90% or more (almost completely withered)). For the same compound, the “herbicidal effect rating, H: barnyard grass” value (barnyard grass [3]; [9]) was 4 (Herbicidal rate of 70% or more and less than 90%), the “herbicidal effect rating, M: velvetleaf” value (velvetleaf; [9]) was 0 (Herbicidal rate of 5% or less (almost no effect)) and the “herbicidal effect rating, N: redroot pigweed” value (redroot pigweed [4]; [9]) was 5 (Herbicidal rate of 90% or more (almost completely withered)). For the same compound, the “herbicidal effect rating, P: chickweed” value (chickweed [5]; [9]) was 5 (Herbicidal rate of 90% or more (almost completely withered)), the “herbicidal effect grade, F: southern crabgrass” value (southern crabgrass; three weeks after application) was 5 (Herbicidal rate of 90% or more (almost completely withered)) and the “herbicidal effect grade, G: green foxtail” value (green foxtail [6]; three weeks after application) was 5 (Herbicidal rate of 90% or more (almost completely withered)). For the same compound, the “herbicidal effect grade, J: blackgrass” value (blackgrass; three weeks after application) was 3 (Herbicidal rate of 40% or more and less than 70%), the “herbicidal effect grade, K: Italian ryegrass” value (Italian ryegrass; three weeks after application) was 3 (Herbicidal rate of 40% or more and less than 70%) and the “herbicidal effect grade, N: redroot pigweed” value (redroot pigweed [7]; three weeks after application) was 5 (Herbicidal rate of 90% or more (almost completely withered)). For the same compound, the “herbicidal effect grade, P: chickweed” value (chickweed [8]; three weeks after application) was 5 (Herbicidal rate of 90% or more (almost completely withered)).
With `COc1ccc(-c2sc3ccc(F)cc3c2-c2c(O)c(C)nn(C)c2=O)cc1OC` [2-088] the “Herbicidal effect on A: late watergrass (grade 0-5)” value (late watergrass) was 3 (Herbicidal rate of 40% or more and less than 70%), the “Herbicidal effect on C: oval-leafed pondweed (grade 0-5)” value (oval-leafed pondweed) was 0 (Herbicidal rate of 5% or less (almost no effect)) and the “herbicidal effect rating, B: Japanese bulrush” value (Japanese bulrush) was 0 (Herbicidal rate of 5% or less (almost no effect)). The “herbicidal effect on H (barnyard grass), rating 0-5” value (barnyard grass [1]) was 5 (Herbicidal rate of 90% or more (almost completely withered)), the “herbicidal effect on E (rice flat sedge), rating 0-5” value (rice flat sedge) was 5 (Herbicidal rate of 90% or more (almost completely withered)) and the “herbicidal effect rating, G: green foxtail” value (green foxtail [2]; 320 g/ha) was 3 (Herbicidal rate of 40% or more and less than 70%). The “herbicidal effect rating, H: barnyard grass” value (barnyard grass [3]; 320 g/ha) was 4 (Herbicidal rate of 70% or more and less than 90%), the “herbicidal effect rating, M: velvetleaf” value (velvetleaf; 320 g/ha) was 2 (Herbicidal rate of 20% or more and less than 40%) and the “herbicidal effect rating, N: redroot pigweed” value (redroot pigweed [4]; 320 g/ha) was 4 (Herbicidal rate of 70% or more and less than 90%). The “herbicidal effect rating, P: chickweed” value (chickweed [5]; 320 g/ha) was 2 (Herbicidal rate of 20% or more and less than 40%), the “herbicidal effect on F: southern crabgrass” value (southern crabgrass; [10]) was 3 (Herbicidal rate of 40% or more and less than 70%) and the “herbicidal effect on G: green foxtail” value (green foxtail [6]; [10]) was 5 (Herbicidal rate of 90% or more (almost completely withered)). The “herbicidal effect on J: blackgrass” value (blackgrass; [10]) was 0 (Herbicidal rate of 5% or less (almost no effect)), the “herbicidal effect on K: Italian ryegrass” value (Italian ryegrass; [10]) was 4 (Herbicidal rate of 70% or more and less than 90%) and the “herbicidal effect on N: redroot pigweed” value (redroot pigweed [7]; [10]) was 5 (Herbicidal rate of 90% or more (almost completely withered)). For the same compound, the “herbicidal effect on P: chickweed” value (chickweed [8]; [10]) was 5 (Herbicidal rate of 90% or more (almost completely withered)).
